From patent publication US20260014133A1, “SUBSTITUTED 3-(l-OXOISOINDOLIN-2-YL)PIPERIDINE-2,6-DIONE/2-(2,6-DIOXOPIPERIDIN-3-YL)ISOINDOLINE-l,3-DIONE ANALOGS AS MODULATORS OF CEREBLON PROTEIN” (St. Jude's Chidren's Research Hospital, Inc., priority 2022, published 2026) come the findings set out here.

Some results are limits rather than exact numbers.

6×His-CRBN-DDB1 protein, sequence (Q96SW2 whole entry): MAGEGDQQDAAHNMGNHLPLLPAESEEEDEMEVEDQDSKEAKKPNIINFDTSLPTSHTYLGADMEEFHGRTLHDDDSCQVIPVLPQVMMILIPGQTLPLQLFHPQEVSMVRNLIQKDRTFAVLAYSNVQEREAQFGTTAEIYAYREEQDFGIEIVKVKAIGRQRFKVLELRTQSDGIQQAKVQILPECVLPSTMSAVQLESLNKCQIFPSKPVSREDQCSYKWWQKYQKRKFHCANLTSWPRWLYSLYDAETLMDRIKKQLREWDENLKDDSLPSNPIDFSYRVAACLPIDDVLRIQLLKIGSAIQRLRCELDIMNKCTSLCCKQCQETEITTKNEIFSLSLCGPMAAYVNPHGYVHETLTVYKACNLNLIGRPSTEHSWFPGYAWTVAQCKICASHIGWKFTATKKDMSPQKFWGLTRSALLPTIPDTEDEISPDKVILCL
6×His-CRBN-DDB1 protein, sequence (Q16531 whole entry partner): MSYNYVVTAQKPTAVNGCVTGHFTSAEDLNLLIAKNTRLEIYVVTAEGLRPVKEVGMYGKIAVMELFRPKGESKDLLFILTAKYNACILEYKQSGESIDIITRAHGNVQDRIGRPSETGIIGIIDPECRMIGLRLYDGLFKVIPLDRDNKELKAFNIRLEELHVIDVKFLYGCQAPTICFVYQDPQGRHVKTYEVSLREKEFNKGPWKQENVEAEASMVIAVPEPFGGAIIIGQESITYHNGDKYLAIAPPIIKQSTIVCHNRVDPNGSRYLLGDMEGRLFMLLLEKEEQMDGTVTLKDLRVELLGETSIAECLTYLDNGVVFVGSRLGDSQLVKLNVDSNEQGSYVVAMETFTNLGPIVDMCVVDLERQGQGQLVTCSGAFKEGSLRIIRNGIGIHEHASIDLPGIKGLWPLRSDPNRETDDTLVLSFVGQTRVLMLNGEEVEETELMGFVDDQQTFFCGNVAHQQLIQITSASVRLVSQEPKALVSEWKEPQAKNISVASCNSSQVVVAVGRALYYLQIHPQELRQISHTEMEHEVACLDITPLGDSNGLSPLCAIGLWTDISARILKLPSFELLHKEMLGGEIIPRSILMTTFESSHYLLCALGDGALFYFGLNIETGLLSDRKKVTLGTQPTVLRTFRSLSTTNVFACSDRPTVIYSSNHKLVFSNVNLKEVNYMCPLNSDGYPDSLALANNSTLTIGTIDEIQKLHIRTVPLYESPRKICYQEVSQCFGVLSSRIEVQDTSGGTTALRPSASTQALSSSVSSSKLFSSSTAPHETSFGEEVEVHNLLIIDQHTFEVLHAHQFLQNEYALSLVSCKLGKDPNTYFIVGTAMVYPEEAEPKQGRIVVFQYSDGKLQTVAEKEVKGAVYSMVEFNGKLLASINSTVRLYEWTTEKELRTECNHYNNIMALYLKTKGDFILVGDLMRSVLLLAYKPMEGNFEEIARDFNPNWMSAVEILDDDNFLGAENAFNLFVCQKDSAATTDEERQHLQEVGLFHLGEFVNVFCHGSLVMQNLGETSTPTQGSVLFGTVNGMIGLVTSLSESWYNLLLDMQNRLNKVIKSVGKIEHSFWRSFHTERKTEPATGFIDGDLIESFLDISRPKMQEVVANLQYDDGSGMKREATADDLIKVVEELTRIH

The assay has as its target 6×His-CRBN-DDB1 protein (Homo sapiens (Human), UniProt Q96SW2). Kind of assay: CRBN Fluorescence Polarization Assay. The assay is classed as binding. Particulars: competitive fluorescence polarization; Cy5-O-Len probe 30 nM, 6×His-CRBN-DDB1 200 nM; 1 hour at room temperature; mean of three independent determinations; read-out: CRBN FP (IC50). On the procedure: In this competitive fluorescent polarization assay Cy5 conjugated lenalidomide analog (Cy5-O-Len)^13 was used as a fluorescent probe. 6×His-CRBN-DDB1 protein (200 nM) and Cy5-O-Len probe (30 nM) were combined in 20 mM HEPES pH 7, 150 mM NaCl, 0.005% Tween-20 assay buffer. 20 μL of this assay cocktail was dispensed into wells of Corning 3821 black 384-well plates. Compounds were transferred to the assay plate from a dose-response plate using a Pintool on a Biomek FXP Laboratory Automation Workstation (Beckman Coulter). The plates were incubated in the dark for 1 hour at room temperature and then read on an Envision plate reader (PerkinElmer, Massachusetts, USA). IC50 values were determined using a proprietary software RISE (Robust Investigation of Screening Experiments), developed in house on the Pipeline Pilot platform (Biovia, v. 17.2.0). Data represent the mean of three independent determinations.
Cereblon binding activity was determined as described herein above, and the results are provided below in Table 2 for representative disclosed compounds. Compound number (“Cmpd No.”) refers to the compound number (and associated compound information such as structure, name, etc.) as provided in Table 1. In Table 2 below: cereblon binding IC50 values are categorized as follows: “A” represents IC50 value<1 μM, “B” represents IC50 value between 1 and 10 μM, and “C” represents IC50 value>10 μM.
A general note: Fluorescence polarisation rises when a labelled molecule tumbles more slowly, as on binding a larger partner.
As usually defined, the IC50 is the concentration that inhibits the measured activity by half. With `COc1ccc(C(=O)Nc2ccc3c(c2)CN(C2CCC(=O)NC2=O)C3=O)cc1` (centres unmarked) [Compound 40, N-(2-(2,6-dioxopiperidin-3-yl)-1-oxoisoindolin-5-yl)-4-methoxybenzamide], the IC50 was less than 1000 nM. For `CC(C)c1cccc(C(=O)Nc2ccc3c(c2)CN(C2CCC(=O)NC2=O)C3=O)c1` (centres unmarked) [Compound 41, N-(2-(2,6-dioxopiperidin-3-yl)-1-oxoisoindolin-5-yl)-3-isopropylbenzamide] the value was 1000 to 10000 nM; for `CC(C)c1ccccc1C(=O)Nc1ccc2c(c1)CN(C1CCC(=O)NC1=O)C2=O` (centres unmarked) [Compound 42, N-(2-(2,6-dioxopiperidin-3-yl)-1-oxoisoindolin-5-yl)-2-isopropylbenzamide], 1000 to 10000 nM; for `O=C1CCC(N2Cc3cc(NC(=O)c4ccc(OC(F)(F)F)cc4)ccc3C2=O)C(=O)N1` (centres unmarked) [Compound 43, N-(2-(2,6-dioxopiperidin-3-yl)-1-oxoisoindolin-5-yl)-4-(trifluoromethoxy)benzamide], 1000 to 10000 nM. For `O=C1CCC(N2Cc3cc(NC(=O)c4cccc(OC(F)(F)F)c4)ccc3C2=O)C(=O)N1` (centres unmarked) [Compound 44, N-(2-(2,6-dioxopiperidin-3-yl)-1-oxoisoindolin-5-yl)-3-(trifluoromethoxy)benzamide] the value was 1000 to 10000 nM; for `O=C1CCC(N2Cc3cc(NC(=O)c4ccccc4OC(F)(F)F)ccc3C2=O)C(=O)N1` (centres unmarked) [Compound 45, N-(2-(2,6-dioxopiperidin-3-yl)-1-oxoisoindolin-5-yl)-2-(trifluoromethoxy)benzamide], 1000 to 10000 nM. The same measure for `CS(=O)(=O)Nc1ccc(C(=O)Nc2ccc3c(c2)CN(C2CCC(=O)NC2=O)C3=O)cc1` (centres unmarked) [Compound 46, N-(2-(2,6-dioxopiperidin-3-yl)-1-oxoisoindolin-5-yl)-4-(methylsulfonamido)benzamide]: 1000 to 10000 nM; for `CS(=O)(=O)Nc1cccc(C(=O)Nc2ccc3c(c2)CN(C2CCC(=O)NC2=O)C3=O)c1` (centres unmarked) [Compound 47, N-(2-(2,6-dioxopiperidin-3-yl)-1-oxoisoindolin-5-yl)-3-(methylsulfonamido)benzamide]: 1000 to 10000 nM. Turning to `O=C1CCC(N2Cc3cc(NC(=O)c4ccc(C5CC5)cc4)ccc3C2=O)C(=O)N1` (centres unmarked) [Compound 48, 4-cyclopropyl-N-(2-(2,6-dioxopiperidin-3-yl)-1-oxoisoindolin-5-yl)benzamide], the half-maximal inhibitory concentration (IC50) was in the range of 1000 to 10000 nM.

On to `O=C1CCC(N2Cc3cc(NC(=O)c4ccccc4C4CC4)ccc3C2=O)C(=O)N1` (centres unmarked) [Compound 49, 2-cyclopropyl-N-(2-(2,6-dioxopiperidin-3-yl)-1-oxoisoindolin-5-yl)benzamide], for which the IC50 lay within 1000 to 10000 nM. With `O=C1CCC(N2Cc3cc(NC(=O)c4cccc(C5CC5)c4)ccc3C2=O)C(=O)N1` (centres unmarked) [Compound 50, 3-cyclopropyl-N-(2-(2,6-dioxopiperidin-3-yl)-1-oxoisoindolin-5-yl)benzamide], the IC50 was in the range of 1000 to 10000 nM.

On to `N#Cc1ccccc1C(=O)Nc1ccc2c(c1)CN(C1CCC(=O)NC1=O)C2=O` (centres unmarked) [Compound 51, 2-cyano-N-(2-(2,6-dioxopiperidin-3-yl)-1-oxoisoindolin-5-yl)benzamide], for which the IC50 lay within 1000 to 10000 nM. For `N#Cc1ccc(C(=O)Nc2ccc3c(c2)CN(C2CCC(=O)NC2=O)C3=O)cc1` (centres unmarked) [Compound 52, 4-cyano-N-(2-(2,6-dioxopiperidin-3-yl)-1-oxoisoindolin-5-yl)benzamide] the value was 1000 to 10000 nM. For `COCCOc1cccc(C(=O)Nc2ccc3c(c2)CN(C2CCC(=O)NC2=O)C3=O)c1` (centres unmarked) [Compound 53, N-(2-(2,6-dioxopiperidin-3-yl)-1-oxoisoindolin-5-yl)-3-(2-methoxyethoxy)benzamide] the value was 1000 to 10000 nM; for `Cc1cc(C(=O)Nc2ccc3c(c2)CN(C2CCC(=O)NC2=O)C3=O)ccc1Br` (centres unmarked) [Compound 54, 4-bromo-N-(2-(2,6-dioxopiperidin-3-yl)-1-oxoisoindolin-5-yl)-3-methylbenzamide], 1000 to 10000 nM; for `Cc1cc(F)cc(C(=O)Nc2ccc3c(c2)CN(C2CCC(=O)NC2=O)C3=O)c1` (centres unmarked) [Compound 55], 1000 to 10000 nM.

For the compound `Cc1cc(C(=O)Nc2ccc3c(c2)CN(C2CCC(=O)NC2=O)C3=O)ccc1F` (centres unmarked) [Compound 56, N-(2-(2,6-dioxopiperidin-3-yl)-1-oxoisoindolin-5-yl)-4-fluoro-3-methylbenzamide], the IC50 is 1000 to 10000 nM.

For the compound `Cc1cccc(C(=O)Nc2ccc3c(c2)CN(C2CCC(=O)NC2=O)C3=O)c1Cl` (centres unmarked) [Compound 57, 2-chloro-N-(2-(2,6-dioxopiperidin-3-yl)-1-oxoisoindolin-5-yl)-3-methylbenzamide], the IC50 is 1000 to 10000 nM.

`CCOc1cc(C)cc(C(=O)Nc2ccc3c(c2)CN(C2CCC(=O)NC2=O)C3=O)c1` (centres unmarked) [Compound 58, N-(2-(2,6-dioxopiperidin-3-yl)-1-oxoisoindolin-5-yl)-3-ethoxy-5-methylbenzamide]: the concentration for half-maximal inhibition (IC50) was in the range of 1000 to 10000 nM. For `COc1cc(F)cc(C(=O)Nc2ccc3c(c2)CN(C2CCC(=O)NC2=O)C3=O)c1` (centres unmarked) [Compound 59, N-(2-(2,6-dioxopiperidin-3-yl)-1-oxoisoindolin-5-yl)-3-fluoro-5-methoxybenzamide] the value was 1000 to 10000 nM; for `CN(C)c1cccc(C(=O)Nc2ccc3c(c2)CN(C2CCC(=O)NC2=O)C3=O)c1` (centres unmarked) [Compound 60, 3-(dimethylamino)-N-(2-(2,6-dioxopiperidin-3-yl)-1-oxoisoindolin-5-yl)benzamide], 1000 to 10000 nM.

Take `COc1cc(C)cc(C(=O)Nc2ccc3c(c2)CN(C2CCC(=O)NC2=O)C3=O)c1` (centres unmarked) [Compound 61, N-(2-(2,6-dioxopiperidin-3-yl)-1-oxoisoindolin-5-yl)-3-methoxy-5-methylbenzamide]: the IC50 is 1000 to 10000 nM. For `O=C1CCC(N2Cc3cc(Nc4noc5cc(F)ccc45)ccc3C2=O)C(=O)N1` (centres unmarked) [Compound 62, 3-(5-((6-fluorobenzo[d]isoxazol-3-yl)amino)-1-oxoisoindolin-2-yl)piperidine-2,6-dione] the value was less than 1000 nM; for `O=C1CCC(N2Cc3cc(Nc4nc5ccccc5s4)ccc3C2=O)C(=O)N1` (centres unmarked) [Compound 63, 3-(5-(benzo[d]thiazol-2-ylamino)-1-oxoisoindolin-2-yl)piperidine-2,6-dione], 1000 to 10000 nM; for `O=C1CCC(N2Cc3cc(NC(=O)COc4ccccc4)ccc3C2=O)C(=O)N1` (centres unmarked) [Compound 64, N-(2-(2,6-dioxopiperidin-3-yl)-1-oxoisoindolin-5-yl)-2-phenoxyacetamide], less than 1000 nM. For `O=C1CCC(N2Cc3cc(NC(=O)COCc4ccccc4)ccc3C2=O)C(=O)N1` (centres unmarked) [Compound 65, 2-(benzyloxy)-N-(2-(2,6-dioxopiperidin-3-yl)-1-oxolsoindolin-5-yl)acetamide] the value was less than 1000 nM.
